Series [1] addresses T1, Hexokinase-4 (Homo sapiens, UniProt P35557).
T1 sequence (P35557 whole entry): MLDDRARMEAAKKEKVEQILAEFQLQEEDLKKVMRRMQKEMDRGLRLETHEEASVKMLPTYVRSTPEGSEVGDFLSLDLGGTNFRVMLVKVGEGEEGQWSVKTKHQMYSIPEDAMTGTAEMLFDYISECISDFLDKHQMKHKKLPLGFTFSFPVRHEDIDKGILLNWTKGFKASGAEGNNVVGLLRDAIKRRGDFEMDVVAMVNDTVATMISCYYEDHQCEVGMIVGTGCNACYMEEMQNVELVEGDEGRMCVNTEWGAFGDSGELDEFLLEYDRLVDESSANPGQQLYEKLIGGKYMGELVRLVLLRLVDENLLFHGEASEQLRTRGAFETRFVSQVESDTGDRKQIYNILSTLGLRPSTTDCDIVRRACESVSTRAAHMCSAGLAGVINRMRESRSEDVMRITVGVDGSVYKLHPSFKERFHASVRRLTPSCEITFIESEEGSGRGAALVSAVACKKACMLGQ
Kind of series: Activation of glucokinase (unknown origin). As to conditions: read-out: pEC50 (converted).

A short description of series [2]: Octanol-buffer partition coefficient, log D of the compound at pH 7.4 after 30 mins by shake flask method. Format: physicochemical.
Series [3] is described as follows: Clearance in rat. As to conditions: in vivo. Format: ADME, organism-based.
The species entered for series [4] is Rattus norvegicus. Kind of series: Unbound clearance in rat. Type of series: ADME, organism-based. Conditions: in vivo.
Series [5] has as its target Voltage-gated inwardly rectifying potassium channel KCNH2 (Homo sapiens, UniProt Q12809). The series is described as follows: Inhibition of human ERG by electrophysiological analysis.
The nature of series [6]: Half life in rat plasma. Type of series: ADME, cell-free.
Series [7] can be described thus: Half life at pH 6. Conditions: buffer. Format: physicochemical.

One may read the logD as the decadic logarithm of the distribution of all forms, ionised or not, between an organic phase and buffer at a given pH. Lower therefore signals a more hydrophilic compound. As usually defined, the clearance is the volume of plasma or blood freed of the substance per unit of time. Read a low clearance as inefficient removal. One may read the IC50 as the concentration that gives 50% inhibition. As a reminder, the half-life is the time needed for the level to fall by half in the phase considered. Low readings indicate fast loss, high ones slow loss.

Where only a bound is given, the exact number is not on record here.

Sequence of Voltage-gated inwardly rectifying potassium channel KCNH2 (Q12809 whole entry): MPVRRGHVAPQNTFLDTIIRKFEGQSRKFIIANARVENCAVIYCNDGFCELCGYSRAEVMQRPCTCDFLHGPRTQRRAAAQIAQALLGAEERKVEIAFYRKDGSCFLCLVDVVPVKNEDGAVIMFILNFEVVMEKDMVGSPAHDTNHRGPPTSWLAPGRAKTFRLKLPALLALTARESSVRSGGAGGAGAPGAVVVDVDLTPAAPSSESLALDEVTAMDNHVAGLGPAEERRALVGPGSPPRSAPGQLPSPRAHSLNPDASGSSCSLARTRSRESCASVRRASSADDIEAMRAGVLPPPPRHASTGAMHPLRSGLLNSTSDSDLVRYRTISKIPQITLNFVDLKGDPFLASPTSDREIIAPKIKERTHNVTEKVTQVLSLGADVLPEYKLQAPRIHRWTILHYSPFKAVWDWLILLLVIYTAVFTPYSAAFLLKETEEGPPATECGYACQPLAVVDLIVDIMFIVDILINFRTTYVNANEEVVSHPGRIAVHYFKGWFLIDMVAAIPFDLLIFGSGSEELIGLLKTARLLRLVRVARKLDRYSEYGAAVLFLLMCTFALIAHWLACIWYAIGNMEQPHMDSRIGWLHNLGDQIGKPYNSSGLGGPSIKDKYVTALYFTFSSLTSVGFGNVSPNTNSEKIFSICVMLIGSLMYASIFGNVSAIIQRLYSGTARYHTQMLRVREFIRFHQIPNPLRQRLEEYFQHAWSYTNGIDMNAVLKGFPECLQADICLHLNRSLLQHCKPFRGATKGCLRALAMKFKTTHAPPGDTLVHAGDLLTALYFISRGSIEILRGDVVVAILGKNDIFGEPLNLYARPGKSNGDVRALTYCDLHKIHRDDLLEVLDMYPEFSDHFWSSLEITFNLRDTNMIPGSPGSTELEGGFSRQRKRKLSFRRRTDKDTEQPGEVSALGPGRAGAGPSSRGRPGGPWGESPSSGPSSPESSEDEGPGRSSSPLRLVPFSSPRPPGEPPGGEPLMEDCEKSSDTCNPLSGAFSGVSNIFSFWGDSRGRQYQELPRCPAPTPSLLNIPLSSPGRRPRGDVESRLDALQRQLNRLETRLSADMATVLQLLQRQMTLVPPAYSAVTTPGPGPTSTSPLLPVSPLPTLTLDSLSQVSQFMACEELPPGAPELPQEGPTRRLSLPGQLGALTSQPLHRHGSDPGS

Turning to `O=C(Nc1ccc(F)cn1)[C@H](COCCO)Oc1ncnc2c1cnn2-c1c(Cl)cccc1Cl`, the EC50 in series [1] is 0.126 µM. Also, in series [2], the logD at 0.5 h was found to be 2.7. Besides, the clearance in series [3] turned out to be 15 mL/min/kg. Also, the CL free in series [4] was determined as 120 mL/min/kg. This compound showed an IC50 in series [5] of 20 µM.
In series [2], `CC(C)OC[C@H](Oc1ncnc2c1cnn2-c1ccccc1Cl)C(=O)Nc1ccc(Cl)cn1` gave a pH-dependent lipophilicity (logD) at 0.5 h of more than 4.3. For the same compound, in series [3], the clearance is 33 mL/min/kg. In series [4], this compound showed a CL free of 1500 mL/min/kg. In series [6], this compound displayed a half-life of 19 min. In addition, in series [5], the IC50 is 15.8 µM.
For `CC(C)OC[C@H](Oc1ncnc2c1cnn2-c1ncccc1Cl)C(=O)Nc1ccc(Cl)cn1`, in series [3], the clearance amounted to 11 mL/min/kg. The CL free in series [4] is 120 mL/min/kg. Also, the half-life in series [6] was 14 min; in series [7], more than 23 days.
For `CC(C)OC[C@H](Oc1ncnc2c1cnn2-c1ncccc1Cl)C(=O)Nc1ccc(C#N)cn1`, in that order: 21 mL/min/kg, 81 mL/min/kg, 22 min and more than 23 days.
For `N#Cc1ccc(NC(=O)[C@H](CN2CC(O)C2)Oc2ncnc3c2cnn3-c2c(Cl)cccc2C#N)nc1`, in series [1], the EC50 is 0.501 µM. The compound also registered a logD at 0.5 h in series [2] of 1.9. For the same compound, 7.94 µM corresponded to half-maximal inhibition in series [5] (IC50).
Consider `O=C(Nc1ccc(F)cn1)[C@H](CN1CC(O)C1)Oc1ncnc2c1cnn2-c1c(F)cccc1Cl`, for which, in series [1], the EC50 is 0.0501 µM. This compound registered a logD at 0.5 h in series [2] of 2.3. For the same compound, the clearance in series [3] is 38 mL/min/kg. Moreover, the CL free in series [4] was 190 mL/min/kg. For the same compound, the IC50 in series [5] is 25.1 µM.
For `O=C(Nc1ccc(F)cn1)[C@H](CN1CC(O)C1)Oc1ncnc2c1cnn2-c1ncccc1Cl`, the EC50 in series [1] was 0.316 µM. In series [2], the logD at 0.5 h came to 1.3. Besides, the clearance in series [3] was found to be 21 mL/min/kg. Further, the CL free in series [4] turned out to be 31 mL/min/kg. In series [6], this compound returned a half-life of 62 min. The IC50 in series [5] was more than 100 µM.
With `O=C(Nc1ccc(F)cn1)[C@H](COCCO)Oc1ncnc2c1cnn2-c1c(F)cccc1Cl`, in series [1], the EC50 was 0.2 µM. This compound also displayed a logD at 0.5 h in series [2] of 2.5. The compound also showed a clearance in series [3] of 15 mL/min/kg. In series [4], this compound registered a CL free of 110 mL/min/kg. Besides, the IC50 in series [5] was 31.6 µM.
For the compound `C[C@@H](CO)OC[C@H](Oc1ncnc2c1cnn2-c1ncccc1Cl)C(=O)Nc1ccc(F)cn1`, the EC50 in series [1] was 2.51 µM. The logD at 0.5 h in series [2] stood at 1.7. In addition, the clearance in series [3] stood at 38 mL/min/kg. This compound returned a CL free in series [4] of 76 mL/min/kg. This compound also yielded a half-life in series [6] of 1 min. Besides, the IC50 in series [5] is more than 100 µM.
Consider `N#Cc1ccc(NC(=O)[C@H](COCCO)Oc2ncnc3c2cnn3-c2ncccc2Cl)nc1`, for which, in series [1], the EC50 is 1.58 µM. The compound also displayed a clearance in series [3] of 13 mL/min/kg. Further, the CL free in series [4] amounted to 28 mL/min/kg. In addition, the half-life in series [6] was found to be 115 min.
With `C[C@@H](CO)OC[C@H](Oc1ncnc2c1cnn2-c1ncccc1Cl)C(=O)Nc1ccc(C#N)cn1`, in series [1], the EC50 was more than 100 µM. In series [2], the logD at 0.5 h came out at 1.5. Besides, in series [6], the half-life came to 115 min.
For `O=C(Nc1ccccn1)[C@H](CN1CC(O)C1)Oc1ncnc2c1cnn2-c1ccccc1Cl`, the EC50 in series [1] is 0.2 µM. Further, in series [2], the logD at 0.5 h was 2. The compound further came in with a clearance in series [3] of 170 mL/min/kg. The CL free in series [4] turned out to be 420 mL/min/kg. Besides, the IC50 in series [5] is more than 100 µM.
For `N#Cc1cccc(Cl)c1-n1ncc2c(O[C@@H](COCCO)C(=O)Nc3ccc(F)cn3)ncnc21`, in that order: 0.501 µM, 2, 19 mL/min/kg, 140 mL/min/kg and 63.1 µM.
Consider `CC(C)OC[C@H](Oc1ncnc2c1cnn2-c1ncccc1Cl)C(=O)Nc1ccc(F)cn1`, for which the clearance in series [3] is 130 mL/min/kg. The compound also returned a CL free in series [4] of 600 mL/min/kg. Moreover, the results for the half-life in series [6] and in series [7] were 7 min and more than 23 days, respectively.
`C[C@H](CO)OC[C@H](Oc1ncnc2c1cnn2-c1ncccc1Cl)C(=O)Nc1ccc(C#N)cn1` registered a logD at 0.5 h in series [2] of 1.5. Also, in series [3], the clearance turned out to be 14 mL/min/kg. This compound also came in with a CL free in series [4] of 29 mL/min/kg. Also, the half-life in series [6] was 106 min; in series [7], more than 23 days.
`N#Cc1ccc(NC(=O)[C@H](CN2CC(O)C2)Oc2ncnc3c2cnn3-c2c(Cl)cccc2Cl)nc1`: the EC50 in series [1] is 0.251 µM. In series [2], this compound showed a logD at 0.5 h of 2.6. Besides, the clearance in series [3] amounted to 64 mL/min/kg. Further, the CL free in series [4] is 240 mL/min/kg.
Turning to `Cc1ccc(NC(=O)[C@H](CCO)Oc2ncnc3c2cnn3-c2ncccc2Cl)nc1`, in series [1], the EC50 was 0.2 µM. Besides, the pH-dependent lipophilicity (logD) at 0.5 h in series [2] amounted to 1.8. The compound also gave a clearance in series [3] of 11 mL/min/kg. Moreover, the half-life in series [6] is more than 300 min.
Turning to `O=C(Nc1ccc(Cl)cn1)[C@H](COCCO)Oc1ncnc2c1cnn2-c1ccccc1Cl`, the EC50 in series [1] was 0.2 µM. This compound also had a logD at 0.5 h in series [2] of 3.1. In series [3], the clearance stood at 11 mL/min/kg. The compound also had a CL free in series [4] of 120 mL/min/kg. Moreover, the half-life in series [6] amounted to 86 min.
In the case of `O=C(Nc1ccc(Cl)cn1)[C@H](COCCO)Oc1ncnc2c1cnn2-c1ncccc1Cl`, in series [1], the EC50 is 0.501 µM. In series [2], this compound returned a logD at 0.5 h of 2.1. Moreover, in series [3], the clearance amounted to 15 mL/min/kg. This compound also displayed a CL free in series [4] of 70 mL/min/kg. The same compound returned a half-life in series [6] of 31 min. Moreover, the IC50 in series [5] was 50.1 µM.
For the compound `C[C@@H](CO)OC[C@H](Oc1ncnc2c1cnn2-c1ncccc1Cl)C(=O)Nc1ccc(Cl)cn1`, the EC50 in series [1] is 3.16 µM. This compound displayed a log distribution coefficient (logD) at 0.5 h in series [2] of 2.4. In addition, in series [6], the half-life was found to be 12 min.
For the compound `O=C(Nc1ccc(F)cn1)[C@H](COCCO)Oc1ncnc2c1cnn2-c1ccccc1Cl`, the EC50 in series [1] is 0.631 µM. Further, in series [2], the logD at 0.5 h was found to be 2.4. In series [3], this compound gave a clearance of 45 mL/min/kg. In series [4], this compound displayed a CL free of 220 mL/min/kg. Also, it took 39.8 µM to reach half-maximal inhibition in series [5] (IC50).
Consider `O=C(Nc1ccc(Cl)cn1)[C@H](CN1CC(O)C1)Oc1ncnc2c1cnn2-c1ncccc1Cl`, for which the EC50 in series [1] is 0.316 µM. Besides, the logD at 0.5 h in series [2] stood at 2. The same compound showed a clearance in series [3] of 38 mL/min/kg. The compound also registered a CL free in series [4] of 140 mL/min/kg. This compound also came in with a half-life in series [6] of 45 min. In addition, in series [5], the IC50 was 50.1 µM.
Consider `O=C(Nc1ccc(Cl)cn1)[C@H](CN1CC(O)C1)Oc1ncnc2c1cnn2-c1ccccc1Cl`, for which the EC50 in series [1] was 0.0631 µM. In series [2], the logD at 0.5 h worked out at 3.1. The same compound yielded a clearance in series [3] of 40 mL/min/kg. The compound further showed a CL free in series [4] of 310 mL/min/kg. Also, the half-life in series [6] was 24 min. In series [5], the midpoint of inhibition, the IC50, lay at 10 µM.
Regarding `N#Cc1cccc(Cl)c1-n1ncc2c(O[C@@H](CN3CC(O)C3)C(=O)Nc3ccc(F)cn3)ncnc21`, in series [1], the EC50 was 0.2 µM. In addition, the logD at 0.5 h in series [2] came out at 2. Further, the clearance in series [3] came out at 32 mL/min/kg. The same compound displayed a CL free in series [4] of 260 mL/min/kg.
`O=C(Nc1ccccn1)[C@H](CN1CC(O)C1)Oc1ncnc2c1cnn2-c1c(F)cccc1Cl` gave a logD at 0.5 h in series [2] of 2.3. Also, the clearance in series [3] was determined as 81 mL/min/kg. The compound further came in with a CL free in series [4] of 250 mL/min/kg.
Turning to `N#Cc1ccc(NC(=O)[C@H](CN2CC(O)C2)Oc2ncnc3c2cnn3-c2ccccc2Cl)nc1`, the EC50 in series [1] was 0.2 µM. Further, the logD at 0.5 h in series [2] was found to be 2.1. Besides, the clearance in series [3] is 30 mL/min/kg. Besides, in series [4], the CL free worked out at 110 mL/min/kg. For the same compound, the IC50 in series [5] is 10 µM.

For the origin of these results see ChEMBL document CHEMBL3217445, “Optimising pharmacokinetics of glucokinase activators with matched triplicate design sets the discovery of AZD3651 and AZD9485” (Medchemcomm, 2013).
